Assay results from patent US9980943B2, “Methods of treating muscular dystrophy” (BOARD OF REGENTS OF THE NEVADA SYSTEM OF HIGHER EDUCATION, …, priority 2013, dated 2018).

Tests used:
Assay type in all cases: cell-based, mouse
[1] = tested on: α7 integrin (LacZ reporter in α7βgal+/− myoblasts); assay: Myoblast α7+/LacZ integrin FDG assay (Burkin assay in myoblasts, 96-well); details: for Burkin Assay in Myoblasts, signal relative to DMSO: α7+/LacZ myoblasts; for Burkin Assay in Myoblasts, signal relative to DMSO / Burkin Assay in Myoblasts, value relative to DMSO: 96-well; for Burkin Assay in Myoblasts, value relative to DMSO: SU9516 analogs, N=3-6
[2] = tested on: α7 integrin (LacZ reporter in α7+/LacZ myotubes); assay: Myotube α7 integrin FDG assay (Burkin assay in myotubes, 96-well); details: for Burkin Assay in Myotubes, value relative to DMSO: SU9516 analogs, 96-well, N=3-6
[3] = tested on: β-galactosidase in CMV-LacZ C2C12 myoblasts; assay: CMV-LacZ secondary screen in C2C12 myoblasts (β-Gal stabilizing assay); details: for CMV-LACZ in Myoblasts, value relative to DMSO: SU9516 analogs, C2C12 CMV-LacZ, N=2; for CMV-LACZ in Myoblasts (β-galactosidase activity relative to DMSO): CMV-LacZ C2C12 myoblasts
Summary of the method: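 First, C2C12 myoblasts were transfected with a linearized CMV-LACZ vector and clonal lines selected by FDG β-gal assay. Then cells were exposed to compounds at 0.5, 1, 5, 10, 20 and 40 μM in 96-well format, two replicates each, and β-gal measured.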

[4] = tested on: β-galactosidase in CMV-LacZ C2C12 myotubes; assay: CMV-LacZ secondary screen in C2C12 myotubes (β-Gal stabilizing assay); details: for CMV-LACZ in Myotubes, value relative to DMSO: SU9516 analogs, C2C12 CMV-LacZ, N=2; for CMV-LACZ in Myotubes, signal relative to DMSO: C2C12 CMV-LacZ myotubes, fold relative to DMSO
Summary of the method: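 A secondary screen identifies compounds that stabilize β-gal independently of the native promoter, using CMV-LacZ C2C12 cells. Curves span 0.5–40 μM at six levels, in duplicate.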

[5] = Mus musculus, Myoblast, 48 h, read-out: Burkin Assay in Myoblasts, value relative to DMSO

Structure (SMILES): O=C1Nc2ccccc2/C1=C/c1ccnc2ccccc12 [MLS001182278-01]
- fold induction at 0.5 µM [1, 5]: 1.21
- fold induction at 1 µM [1, 5]: 1.07
- fold induction at 5 µM [1, 5]: 1.06
- fold induction at 10 µM [1, 5]: 1.17
- fold induction at 20 µM [1, 5]: 0.766
- fold induction at 40 µM [1, 5]: 0.842
- Burkin Assay in Myotubes, value relative to DMSO ([2]; 0.5 uM): 1.1969
- Burkin Assay in Myotubes, value relative to DMSO ([2]; 1 uM): 1.118
- Burkin Assay in Myotubes, value relative to DMSO ([2]; 5 uM): 1.402
- Burkin Assay in Myotubes, value relative to DMSO ([2]; 10 uM): 1.412
- Burkin Assay in Myotubes, value relative to DMSO ([2]; 20 uM): 0.5653
- Burkin Assay in Myotubes, value relative to DMSO ([2]; 40 uM): 0.6488
- CMV-LACZ in Myoblasts, value relative to DMSO ([3]; 0.5 uM): 0.7466
- CMV-LACZ in Myoblasts, value relative to DMSO ([3]; 1 uM): 0.9491
- CMV-LACZ in Myoblasts, value relative to DMSO ([3]; 5 uM): 0.9823
- CMV-LACZ in Myoblasts, value relative to DMSO ([3]; 10 uM): 0.9778
- CMV-LACZ in Myoblasts, value relative to DMSO ([3]; 20 uM): 1.0519
- CMV-LACZ in Myoblasts, value relative to DMSO ([3]; 40 uM): 0.5959
- CMV-LACZ in Myotubes, value relative to DMSO ([4]; 0.5 uM): 0.9674
- CMV-LACZ in Myotubes, value relative to DMSO ([4]; 1 uM): 1.0126
- CMV-LACZ in Myotubes, value relative to DMSO ([4]; 5 uM): 1.0327
- CMV-LACZ in Myotubes, value relative to DMSO ([4]; 10 uM): 1.0297
- CMV-LACZ in Myotubes, value relative to DMSO ([4]; 20 uM): 1.0224
- CMV-LACZ in Myotubes, value relative to DMSO ([4]; 40 uM): 1.1212

Structure (SMILES): OC(c1nc2ccc(F)cc2[nH]1)C(O)c1nc2ccc(F)cc2[nH]1 (stereo not drawn) [MLS001182368-01]
- Burkin Assay in Myoblasts, signal relative to DMSO ([1]; 0.5 uM): 1.081
- Burkin Assay in Myoblasts, signal relative to DMSO ([1]; 1 uM): 1.215
- Burkin Assay in Myoblasts, signal relative to DMSO ([1]; 5 uM): 0.914
- Burkin Assay in Myoblasts, signal relative to DMSO ([1]; 10 uM): 0.8945
- Burkin Assay in Myoblasts, signal relative to DMSO ([1]; 20 uM): 1.001
- Burkin Assay in Myoblasts, signal relative to DMSO ([1]; 40 uM): 0.8952
- Burkin Assay in Myotubes, α7 integrin LacZ reporter signal relative to DMSO ([2]; 0.5 uM): 1.044
- Burkin Assay in Myotubes, α7 integrin LacZ reporter signal relative to DMSO ([2]; 1 uM): 1.0792
- Burkin Assay in Myotubes, α7 integrin LacZ reporter signal relative to DMSO ([2]; 5 uM): 1.2117
- Burkin Assay in Myotubes, α7 integrin LacZ reporter signal relative to DMSO ([2]; 10 uM): 1.02
- Burkin Assay in Myotubes, α7 integrin LacZ reporter signal relative to DMSO ([2]; 20 uM): 0.9097
- Burkin Assay in Myotubes, α7 integrin LacZ reporter signal relative to DMSO ([2]; 40 uM): 0.9193
- CMV-LACZ in Myoblasts (β-galactosidase activity relative to DMSO) ([3]; 0.5 uM): 0.9571
- CMV-LACZ in Myoblasts (β-galactosidase activity relative to DMSO) ([3]; 1 uM): 0.8783
- CMV-LACZ in Myoblasts (β-galactosidase activity relative to DMSO) ([3]; 5 uM): 1.0528
- CMV-LACZ in Myoblasts (β-galactosidase activity relative to DMSO) ([3]; 10 uM): 0.9225
- CMV-LACZ in Myoblasts (β-galactosidase activity relative to DMSO) ([3]; 20 uM): 1.2322
- CMV-LACZ in Myoblasts (β-galactosidase activity relative to DMSO) ([3]; 40 uM): 1.1615
- CMV-LACZ in Myotubes, signal relative to DMSO ([4]; 0.5 uM): 0.8667
- CMV-LACZ in Myotubes, signal relative to DMSO ([4]; 1 uM): 1.0619
- CMV-LACZ in Myotubes, signal relative to DMSO ([4]; 5 uM): 0.8931
- CMV-LACZ in Myotubes, signal relative to DMSO ([4]; 10 uM): 0.8690
- CMV-LACZ in Myotubes, signal relative to DMSO ([4]; 20 uM): 0.9953
- CMV-LACZ in Myotubes, signal relative to DMSO ([4]; 40 uM): 1.0318

Structure (SMILES): CN1CCN(c2ccccc2/C=C2/C(=O)Nc3ccccc32)CC1 [MLS001182377-01]
- Burkin Assay in Myoblasts, value relative to DMSO ([1]; 0.5 uM): 1.179
- Burkin Assay in Myoblasts, value relative to DMSO ([1]; 1 uM): 1.045
- Burkin Assay in Myoblasts, value relative to DMSO ([1]; 5 uM): 0.915
- Burkin Assay in Myoblasts, value relative to DMSO ([1]; 10 uM): 0.9061
- Burkin Assay in Myoblasts, value relative to DMSO ([1]; 20 uM): 0.8744
- Burkin Assay in Myoblasts, value relative to DMSO ([1]; 40 uM): 0.6176
- Burkin Assay in Myotubes, value relative to DMSO ([2]; 0.5 uM): 1.015
- Burkin Assay in Myotubes, value relative to DMSO ([2]; 1 uM): 1.021
- Burkin Assay in Myotubes, value relative to DMSO ([2]; 5 uM): 0.9372
- Burkin Assay in Myotubes, value relative to DMSO ([2]; 10 uM): 0.9389
- Burkin Assay in Myotubes, value relative to DMSO ([2]; 20 uM): 0.8654
- Burkin Assay in Myotubes, value relative to DMSO ([2]; 40 uM): 0.9149
- CMV-LACZ in Myoblasts, value relative to DMSO ([3]; 0.5 uM): 1.1229
- CMV-LACZ in Myoblasts, value relative to DMSO ([3]; 1 uM): 1.1646
- CMV-LACZ in Myoblasts, value relative to DMSO ([3]; 5 uM): 0.9113
- CMV-LACZ in Myoblasts, value relative to DMSO ([3]; 10 uM): 0.9294
- CMV-LACZ in Myoblasts, value relative to DMSO ([3]; 20 uM): 0.4441
- CMV-LACZ in Myoblasts, value relative to DMSO ([3]; 40 uM): 0.4170
- CMV-LACZ in Myotubes, value relative to DMSO ([4]; 0.5 uM): 0.7762
- CMV-LACZ in Myotubes, value relative to DMSO ([4]; 1 uM): 0.8105
- CMV-LACZ in Myotubes, value relative to DMSO ([4]; 5 uM): 0.9608
- CMV-LACZ in Myotubes, value relative to DMSO ([4]; 10 uM): 1.0589
- CMV-LACZ in Myotubes, value relative to DMSO ([4]; 20 uM): 1.0305
- CMV-LACZ in Myotubes, value relative to DMSO ([4]; 40 uM): 1.0263
